Assay: recombinant UMI read abundance after kanamycin selection (control-corrected) (log10(CPM+1)); higher = more efficient recombination; extreme values may be limits of the assay; sequences stand for … in AGTGCAGAGAAAATCGGCCAGTTTTCTCTGCCTGCAGTCCGCATGCCGTGGGACCCCTTGGGTTCTAACCTGTTGCCTAGATTTATGCAGCGGACTGCCTTTCTCCCAAAGTGATAAACCGG…AGGTTGGTTTCACT; site = the 11-nt donor
Procedure, shortened: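 Reported values are log10(CPM+1) from a pooled Escherichia coli screen of donor and donor-binding-loop pairs for the IS621 bridge recombinase. Selection used IPTG (0.07 mM) plus kanamycin, against unselected plating, each in two replicates. Recombinant UMIs were amplified across the donor–target junction, sequenced, converted to CPM, averaged over replicates and scaled by control-derived factors.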
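Further: IS621 bridge recombinase in Escherichia coli cells against a fixed T5 target plasmid.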

| Sequence | recombinant UMI read abundance (log10) |
| --- | --- |
| CCGTTAGCATGGACCGGTTTTCCCGGTAATCCGTATTTGTG (site CCGATAGCTCA) | 0.0175 |
| CCGTTAGCATGGACCGGTTTTCCCGGTAATCCGTATTTGTG (site CCGCTAGCTCA) | 0.00432 |
| CCGTTAGCATGGACCGGTTTTCCCGGTAATCCGTATTTGTG (site CCGGTAGCTCA) | 0.014 |
| CCGTTAGCATGGACCGGTTTTCCCGGTAATCCGTATTTGTG (site CCGTAAGCTCA) | 0.00568 |
| CCGTTAGCATGGACCGGTTTTCCCGGTAATCCGTATTTGTG (site CCGTCAGCTCA) | 0.0147 |
| CCGTTAGCATGGACCGGTTTTCCCGGTAATCCGTATTTGTG (site CCGTGAGCTCA) | 0.0389 |
| CCGTTAGCATGGACCGGTTTTCCCGGTAATCCGTATTTGTG (site CCGTTAACTCA) | 0.0199 |
| CCGTTAGCATGGACCGGTTTTCCCGGTAATCCGTATTTGTG (site CCGTTACCTCA) | 0 |
| CCGTTAGCATGGACCGGTTTTCCCGGTAATCCGTATTTGTG (site CCGTTAGCTAA) | 0.0124 |
| CCGTTAGCATGGACCGGTTTTCCCGGTAATCCGTATTTGTG (site CCGTTAGCTCA) | 0.386 |
| CCGTTAGCATGGACCGGTTTTCCCGGTAATCCGTATTTGTG (site CCGTTAGCTCC) | 0.0262 |
| CCGTTAGCATGGACCGGTTTTCCCGGTAATCCGTATTTGTG (site CCGTTAGCTCG) | 0 |
| CCGTTAGCATGGACCGGTTTTCCCGGTAATCCGTATTTGTG (site CCGTTAGCTCT) | 0 |
| CCGTTAGCATGGACCGGTTTTCCCGGTAATCCGTATTTGTG (site CCGTTAGCTGA) | 0 |
| CCGTTAGCATGGACCGGTTTTCCCGGTAATCCGTATTTGTG (site CCGTTAGCTTA) | 0 |
| CCGTTAGCATGGACCGGTTTTCCCGGTAATCCGTATTTGTG (site CCGTTATCTCA) | 0 |
| CCGTTAGCATGGACCGGTTTTCCCGGTAATCCGTATTTGTG (site CCGTTCGCTCA) | 0 |
| CCGTTAGCATGGACCGGTTTTCCCGGTAATCCGTATTTGTG (site CCGTTGGCTCA) | 0.0165 |
| CCGTTAGCATGGACCGGTTTTCCCGGTAATCCGTATTTGTG (site CCGTTTGCTCA) | 0.00521 |
| CCGTTAGCATGGACCGGTTTTCCCGGTAATCCGTATTTGTG (site CCTTTAGCTCA) | 0.015 |
| CCGTTAGCATGGACCGGTTTTCCCGGTAATCCGTATTTGTG (site CGGTTAGCTCA) | 0.00954 |
| CCGTTAGCATGGACCGGTTTTCCCGGTAATCCGTATTTGTG (site CTGTTAGCTCA) | 0.164 |
| CCGTTAGCATGGACCGGTTTTCCCGGTAATCCGTATTTGTG (site GCGTTAGCTCA) | 0 |
| CCGTTAGCATGGACCGGTTTTCCCGGTAATCCGTATTTGTG (site TCGTTAGCTCA) | 0.00762 |
| CCGTTCGCATGGACCGGTTTTCCCGGTAATCCGTATTTGTA (site CCGTTCGCTTA) | 0.827 |

| Sequence | recombinant UMI read abundance (log10) |
| --- | --- |
| CCGTTCTCATGGACCGGTTTTCCCGGTAATCCGTATTTGGG (site CCATTCTCTCC) | 0.00249 |
| CCGTTCTCATGGACCGGTTTTCCCGGTAATCCGTATTTGGG (site CCCTTCTCTCC) | 0 |
| CCGTTCTCATGGACCGGTTTTCCCGGTAATCCGTATTTGGG (site CCGTTCTCTCC) | 0 |
| CCGTTCTCATGGACCGGTTTTCCCGGTAATCCGTATTTGGG (site CCTTTCTCTCC) | 0 |
| CCGTTGACATGGACCGGTTTTCCCGGTAATCCGTATTTGCT (site CCGTTAACTAG) | 0 |
| CCGTTGACATGGACCGGTTTTCCCGGTAATCCGTATTTGCT (site CCGTTCACTAG) | 0 |
| CCGTTGACATGGACCGGTTTTCCCGGTAATCCGTATTTGCT (site CCGTTGACTAG) | 1.05 |
| CCGTTGACATGGACCGGTTTTCCCGGTAATCCGTATTTGCT (site CCGTTTACTAG) | 0 |
| CCGTTTACATGGACCGGTTTTCCCGGTAATCCGTATTTGCC (site CCGTTTACTAG) | 0 |
| CCGTTTACATGGACCGGTTTTCCCGGTAATCCGTATTTGCC (site CCGTTTACTCG) | 0 |
| CCGTTTACATGGACCGGTTTTCCCGGTAATCCGTATTTGCC (site CCGTTTACTGG) | 0 |
| CCGTTTACATGGACCGGTTTTCCCGGTAATCCGTATTTGCC (site CCGTTTACTTG) | 0 |
| CCGTTTACATGGACCGGTTTTCCCGGTAATCCGTATTTGTT (site CCGTTTACTAA) | 0.175 |
| CCGTTTACATGGACCGGTTTTCCCGGTAATCCGTATTTGTT (site CCGTTTACTAC) | 0 |
| CCGTTTACATGGACCGGTTTTCCCGGTAATCCGTATTTGTT (site CCGTTTACTAG) | 0 |
| CCGTTTACATGGACCGGTTTTCCCGGTAATCCGTATTTGTT (site CCGTTTACTAT) | 0 |
| CCGTTTGCATGGACCGGTTTTCCCGGTAATCCGTATTTGCT (site CCGTTTACTAG) | 0 |
| CCGTTTGCATGGACCGGTTTTCCCGGTAATCCGTATTTGCT (site CCGTTTCCTAG) | 0 |
| CCGTTTGCATGGACCGGTTTTCCCGGTAATCCGTATTTGCT (site CCGTTTGCTAG) | 0 |
| CCGTTTGCATGGACCGGTTTTCCCGGTAATCCGTATTTGCT (site CCGTTTTCTAG) | 0 |
| CCGTTTGCATGGACCGGTTTTCCCGGTAATCCGTATTTGGT (site CCGTTTGCTAC) | 0.48 |
| CCTAAACCATGGACCGGTTTTCCCGGTAATCCGTATTTGAT (site CCTAAAACTAT) | 0 |
| CCTAAACCATGGACCGGTTTTCCCGGTAATCCGTATTTGAT (site CCTAAACCTAT) | 0 |
| CCTAAACCATGGACCGGTTTTCCCGGTAATCCGTATTTGAT (site CCTAAAGCTAT) | 0 |
| CCTAAACCATGGACCGGTTTTCCCGGTAATCCGTATTTGAT (site CCTAAATCTAT) | 0 |

| Sequence | recombinant UMI read abundance (log10) |
| --- | --- |
| CCTAAAGCATGGACCGGTTTTCCCGGTAATCCGTATTTGAC (site CCTAAAGCTAT) | 0 |
| CCTAAAGCATGGACCGGTTTTCCCGGTAATCCGTATTTGAC (site CCTAAAGCTCT) | 0.00302 |
| CCTAAAGCATGGACCGGTTTTCCCGGTAATCCGTATTTGAC (site CCTAAAGCTGT) | 0 |
| CCTAAAGCATGGACCGGTTTTCCCGGTAATCCGTATTTGAC (site CCTAAAGCTTT) | 0.0124 |
| CCTAAATCATGGACCGGTTTTCCCGGTAATCCGTATTTGAT (site CCTAAAACTAT) | 0 |
| CCTAAATCATGGACCGGTTTTCCCGGTAATCCGTATTTGAT (site CCTAAACCTAT) | 0 |
| CCTAAATCATGGACCGGTTTTCCCGGTAATCCGTATTTGAT (site CCTAAAGCTAT) | 0 |
| CCTAAATCATGGACCGGTTTTCCCGGTAATCCGTATTTGAT (site CCTAAATCTAT) | 0.00669 |
| CCTAACCCATGGACCGGTTTTCCCGGTAATCCGTATTTGAG (site CCTAACCCTCT) | 0.00788 |
| CCTAACGCATGGACCGGTTTTCCCGGTAATCCGTATTTGCT (site CCTAACGCTAG) | 0 |
| CCTAATACATGGACCGGTTTTCCCGGTAATCCGTATTTGCC (site CCTAATACTGA) | 0 |
| CCTAATACATGGACCGGTTTTCCCGGTAATCCGTATTTGCC (site CCTAATACTGC) | 0 |
| CCTAATACATGGACCGGTTTTCCCGGTAATCCGTATTTGCC (site CCTAATACTGG) | 0 |
| CCTAATACATGGACCGGTTTTCCCGGTAATCCGTATTTGCC (site CCTAATACTGT) | 0 |
| CCTAATACATGGACCGGTTTTCCCGGTAATCCGTATTTGGA (site CCTAATACTAC) | 0 |
| CCTAATACATGGACCGGTTTTCCCGGTAATCCGTATTTGGA (site CCTAATACTCC) | 0.00642 |
| CCTAATACATGGACCGGTTTTCCCGGTAATCCGTATTTGGA (site CCTAATACTGC) | 0 |
| CCTAATACATGGACCGGTTTTCCCGGTAATCCGTATTTGGA (site CCTAATACTTC) | 0.00465 |
| CCTAATACATGGACCGGTTTTCCCGGTAATCCGTATTTGGG (site CCTAATACTAC) | 0 |
| CCTAATACATGGACCGGTTTTCCCGGTAATCCGTATTTGGG (site CCTAATACTCC) | 0.011 |
| CCTAATACATGGACCGGTTTTCCCGGTAATCCGTATTTGGG (site CCTAATACTGC) | 0 |
| CCTAATACATGGACCGGTTTTCCCGGTAATCCGTATTTGGG (site CCTAATACTTC) | 0.0102 |
| CCTAATGCATGGACCGGTTTTCCCGGTAATCCGTATTTGAT (site CCTAAAGCTAT) | 0 |
| CCTAATGCATGGACCGGTTTTCCCGGTAATCCGTATTTGAT (site CCTAACGCTAT) | 0.00278 |
| CCTAATGCATGGACCGGTTTTCCCGGTAATCCGTATTTGAT (site CCTAAGGCTAT) | 0 |

— the supplement of paper PMC11208160
